Among the data in US20260374754A1, “N-((ISOQUINOLIN-6-YL)METHYL)-1H-PYRAZOLE-4-CARBOXAMIDE DERIVATIVES AS PLASMA KALLIKREIN INHIBITORS FOR THE TREATMENT OF HEREDITARY ANGIODEMA” (Takeda Pharmaceutical Company Limited, priority 2022, published 2026) are EC50 values, retold here.

Counter-ions that a name gives are not always drawn. A value given as a limit tells only on which side of the number the result lay.

human activated kallikrein enzyme, sequence (P03952 391-638 limits assumed): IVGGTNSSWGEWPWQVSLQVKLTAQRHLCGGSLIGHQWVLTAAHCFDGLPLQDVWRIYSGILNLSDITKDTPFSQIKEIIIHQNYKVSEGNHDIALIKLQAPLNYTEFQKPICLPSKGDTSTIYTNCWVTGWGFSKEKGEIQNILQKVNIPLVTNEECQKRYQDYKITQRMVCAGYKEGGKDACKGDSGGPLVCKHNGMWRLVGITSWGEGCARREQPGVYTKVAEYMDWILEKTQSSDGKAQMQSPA
human activated kallikrein enzyme, sequence (P03952 20-390 partner limits assumed): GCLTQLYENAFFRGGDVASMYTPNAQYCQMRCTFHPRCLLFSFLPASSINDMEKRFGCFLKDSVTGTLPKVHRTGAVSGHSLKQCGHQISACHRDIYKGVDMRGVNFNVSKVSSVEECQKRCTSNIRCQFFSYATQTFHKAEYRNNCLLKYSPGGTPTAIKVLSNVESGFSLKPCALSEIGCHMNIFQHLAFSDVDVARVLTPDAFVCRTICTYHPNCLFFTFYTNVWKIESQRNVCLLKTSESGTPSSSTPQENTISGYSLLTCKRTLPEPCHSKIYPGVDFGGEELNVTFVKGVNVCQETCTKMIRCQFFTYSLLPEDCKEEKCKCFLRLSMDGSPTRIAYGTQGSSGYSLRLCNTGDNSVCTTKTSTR

The target in this assay is human activated kallikrein enzyme (Homo sapiens, UniProt P03952). Kind of assay: Inhibition of human activated plasma kallikrein, fluorogenic PFR-AMC substrate, 500 pM enzyme format. The settings on record: 500 pM activated kallikrein; 300 μM PFR-AMC; 30 min preincubation; 10 min room temperature; pH 7.5; read-out: Primary Dose Response Assay: Average EC50. In kind it is biochemical. The method, boiled down:
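500 pM activated kallikrein preincubated 30 min at room temperature with inhibitors in pH 7.5 Tris/EDTA/NaCl buffer with PEG-400 and Triton X-100. Reaction started with 300 μM PFR-AMC, run 10 min at room temperature; AMC fluorescence read at ex 380/em 460 nm.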
Consider `CC(=O)Nc1nccc2c(C)c(CNC(=O)c3cnn(Cc4ccc5ncc(Cl)cc5c4)c3)c(C)cc12` [Example 133, N-((1-acetamido-5,7-dimethylisoquinolin-6-yl)methyl)-1-((3-chloroquinolin-6-yl)methyl)-1H-pyrazole-4-carboxamide], for which the EC50 lay within 10 to 100 nM.

`Cc1cc2c(N)nccc2c(C)c1CNC(=O)c1cnn(C(F)(F)c2ccc(Br)cc2)c1` [Example I-469, N-((1-amino-5,7-dimethylisoquinolin-6-yl)methyl)-1-((4-bromophenyl)difluoromethyl)-1H-pyrazole-4-carboxamide]: the EC50 is 100 to 1000 nM.

`Cc1cc2c(N)nccc2c(C)c1CNC(=O)c1cnn(Cc2cc3cccc(C)c3nc2Cl)c1` [Example 73, N-((1-amino-5,7-dimethylisoquinolin-6-yl)methyl)-1-((2-chloro-8-methylquinolin-3-yl)methyl)-1H-pyrazole-4-carboxamide]: the EC50 lay within 1 to 10 nM.

Take `Cc1cc2c(N)nccc2c(C)c1CNc1cc(OCc2cc3cc(C4CC4)ccc3s2)ncn1` [Example 395, 6-(((6-((5-cyclopropylbenzo[b]thiophen-2-yl)methoxy)pyrimidin-4-yl)amino)methyl)-5,7-dimethylisoquinolin-1-amine]: the EC50 lay in the range of 10 to 100 nM.

As to `Cc1ccc2nc(C(C(=O)O)n3cc(C(=O)NCc4c(C)cc5c(N)nccc5c4C)cn3)cn2c1` (stereo not drawn) [Example 129, 2-(4-(((1-amino-5,7-dimethylisoquinolin-6-yl)methyl)carbamoyl)-1H-pyrazol-1-yl)-2-(6-methylimidazo[1,2-a]pyridin-2-yl)acetic acid], the EC50 lay in the range of 1 to 10 nM.

Consider `Cc1cccc(Cn2cc(C(=O)NCc3c(C)cc4c(N)nccc4c3C)cn2)c1` [Example 41, N-((1-amino-5,7-dimethylisoquinolin-6-yl)methyl)-1-(3-methylbenzyl)-1H-pyrazole-4-carboxamide], for which the EC50 was in the range of 10 to 100 nM.

As to `Cc1cc2c(N)nccc2c(C)c1CNC(=O)c1cnn(Cc2cn3cc(C4CC4(C)C)ccc3n2)c1` (stereo not drawn) [Example 176, N-((1-amino-5,7-dimethylisoquinolin-6-yl)methyl)-1-((6-(2,2-dimethylcyclopropyl)imidazo[1,2-a]pyridin-2-yl)methyl)-1H-pyrazole-4-carboxamide], the EC50 lay within 1 to 10 nM.

On to `COc1ccc2cc(CN(C)c3cc(NCc4c(C)cc5c(N)nccc5c4C)ncn3)ccc2c1` [Example 318, N^4-((1-amino-5,7-dimethylisoquinolin-6-yl)methyl)-N^6_((6-methoxynaphthalen-2-yl)methyl)-N^6-methylpyrimidine-4,6-diamine], for which the EC50 lay in the range of 100 to 1000 nM.

Take `Cc1cc2c(N)nccc2c(C)c1CNc1cc2c(cn1)cnn2Cc1ccc(Cn2cccn2)cc1` [Example I-458, 6-(((1-(4-((1H-pyrazol-1-yl)methyl)benzyl)-1H-pyrazolo[4,3-c]pyridin-6-yl)amino)methyl)-5,7-dimethylisoquinolin-1-amine]: the EC50 was 1 to 10 nM.

With `Cc1cc2c(N)nccc2c(C)c1CNc1cc(NCc2ccc3c(c2)OCCN3C)ncn1` [Example 326, N^4-((1-amino-5,7-dimethylisoquinolin-6-yl)methyl)-N^6-((4-methyl-3,4-dihydro-2H-benzo[b][1,4]oxazin-7-yl)methyl)pyrimidine-4,6-diamine, formic acid salt], the EC50 was 1 to 10 nM.

As to `Cc1cc2c(N)nccc2c(C)c1CNC(=O)c1cnn(Cc2cc3ccccc3o2)c1` [Example 82, N-((1-amino-5,7-dimethylisoquinolin-6-yl)methyl)-1-(benzofuran-2-ylmethyl)-1H-pyrazole-4-carboxamide], the EC50 was in the range of 10 to 100 nM.

Regarding `Cc1cc2c(N)nccc2c(C)c1CNC(=O)c1cn(Cc2ccc(CC(=O)N3CC4CC4C3)cc2)nc1C(F)(F)F` (stereo not drawn) [Example 182, 1-(4-(2-(3-azabicyclo[3.1.0]hexan-3-y1)-2-oxoethyl)benzyl)-N-((1-amino-5,7-dimethylisoquinolin-6-yl)methyl)-3-(trifluoromethyl)-1H-pyrazole-4-carboxamide], the EC50 was less than 1 nM.

For `Cc1cc2c(N)nccc2c(C)c1CNC(=O)c1cnn(Cc2ccc3cc(F)ccc3n2)c1` [Example 158, N-((1-amino-5,7-dimethylisoquinolin-6-yl)methyl)-1-((6-fluoroquinolin-2-yl)methyl)-1H-pyrazole-4-carboxamide], the EC50 is 1 to 10 nM.

Take `Cc1ncc2ccc(Cn3cc(C(=O)NCc4c(C)cc5c(N)nccc5c4C)cn3)cc2n1` [Example 16, N-((1-amino-5,7-dimethylisoquinolin-6-yl)methyl)-1-((2-methylquinazolin-7-yl)methyl)-1H-pyrazole-4-carboxamide]: the EC50 was in the range of 1 to 10 nM.

With `Cc1cc2c(N)nccc2c(C)c1CNC(=O)c1cnn(Cc2cccc(C(F)(F)F)c2)c1` [Example 97, N-((1-amino-5,7-dimethylisoquinolin-6-yl)methyl)-1-(3-(trifluoromethyl)benzyl)-1H-pyrazole-4-carboxamide], the EC50 is 10 to 100 nM.

As for `Cc1cc2c(N)nccc2c(C)c1CNc1cnnc(OCc2ccc(CC(=O)N(C)C)cc2)c1` [Example I-462, 2-(4-(((5-(((1-amino-5,7-dimethylisoquinolin-6-yl)methyl)amino)pyridazin-3-yl)oxy)methyl)phenyl)-N,N-dimethylacetamide], the EC50 was greater than 1000 nM.

`Cc1ccc2ccc(Cn3cc(C(=O)NCc4c(C)cc5c(N)nccc5c4C)cn3)cc2c1` [Example 153, N-((1-amino-5,7-dimethylisoquinolin-6-yl)methyl)-1-((7-methylnaphthalen-2-yl)methyl)-1H-pyrazole-4-carboxamide]: the EC50 was 1 to 10 nM.

Take `Cc1cc2c(N)nccc2c(C)c1CNc1cc(OCc2ccc(-n3ccccc3=O)cc2)ncn1` [Example 296, 1-(4-(((6-(((1-amino-5,7-dimethylisoquinolin-6-yl)methyl)amino)pyrimidin-4-yl)oxy)methyl)phenyl)pyridin-2(1H)-one]: the EC50 lay within 10 to 100 nM.

Take `CCOC(=O)CCc1nc(NCc2c(C)cc3c(N)nccc3c2C)cc(OCc2cn3cc(C4CC4)ccc3n2)n1` [Example 274, ethyl 3-(4-(((1-amino-5,7-dimethylisoquinolin-6-yl)methyl)amino)-6-((6-cyclopropylimidazo[1,2-a]pyridin-2-yl)methoxy)pyrimidin-2-yl)propanoate]: the EC50 was in the range of 1 to 10 nM.

With `Cc1cc2c(N)nccc2c(C)c1CN1C(=O)c2ncc(OCc3cn4cc(C5CC5)ccc4n3)cc21` [Example 494, 7-((1-amino-5,7-dimethylisoquinolin-6-yl)methyl)-4-((6-cyclopropylimidazo[1,2-a]pyridin-2-yl)methoxy)-2,7-diazabicyclo[4.2.0]octa-1,3,5-trien-8-one], the EC50 is greater than 1000 nM.

In the case of `CCOC(=O)Nc1nccc2c(C)c(CNc3cc(NCc4ccc(Cn5ccccc5=O)cc4)ncn3)c(C)cc12` [Example 249, ethyl (5,7-dimethyl-6-(((6-((4-((2-oxopyridin-1(2H)-yl)methyl)benzyl)amino)pyrimidin-4-yl)amino)methyl)isoquinolin-1-yl)carbamate], the EC50 lay within 10 to 100 nM.

Regarding `Cc1cc2c(N)nccc2c(C)c1CNC(=O)c1cnn(Cc2ccc(CC(=O)N3C[C@@H]4[C@@H](CF)[C@@H]4C3)cc2)c1` [Example 207, N-((1-amino-5,7-dimethylisoquinolin-6-yl)methyl)-1-(4-(2-((1R,5S,6r)-6-(fluoromethyl)-3-azabicyclo[3.1.0]hexan-3-y1)-2-oxoethyl)benzyl)-1H-pyrazole-4-carboxamide], the EC50 fell in the range of 1 to 10 nM.

`Cc1cc2c(N)nccc2c(C)c1CNc1cc(OCc2ccc(Cc3ccn(C)n3)cc2)cnn1` [Example 439, 5,7-dimethyl-6-(((5-((4-((1-methyl-1H-pyrazol-3-yl)methyl)benzyl)oxy)pyridazin-3-yl)amino)methyl)isoquinolin-1-amine]: the EC50 is less than 1 nM.

With `Cc1cc2c(N)nccc2c(C)c1CNc1cc(OC(C)c2cn3nc(C4CC4)ccc3n2)ncn1` (stereo not drawn) [Example 493, 6-(((6-(1-(6-cyclopropylimidazo[1,2-b]pyridazin-2-yl)ethoxy)pyrimidin-4-yl)amino)methyl)-5,7-dimethylisoquinolin-1-amine], the EC50 was 10 to 100 nM.

`Cc1cc2c(N)nccc2c(C)c1CNc1cc(OCc2ccc(CC(=O)N(C)C)cc2)ncn1` [Example I-466, 2-(4-(((6-(((1-amino-5,7-dimethylisoquinolin-6-yl)methyl)amino)pyrimidin-4-yl)oxy)methyl)phenyl)-N,N-dimethylacetamide]: the EC50 fell in the range of 1 to 10 nM.

For `Cc1ccc(Cn2cc(C(=O)NCc3c(C)cc4c(N)nccc4c3C)cn2)cc1` [Example 35, N-((1-amino-5,7-dimethylisoquinolin-6-yl)methyl)-1-(4-methylbenzyl)-1H-pyrazole-4-carboxamide], the half-maximal effective concentration (EC50) is 10 to 100 nM.

Consider `Cc1cc2c(N)nccc2c(C)c1CNc1ccc2cnc(Cc3ccc4ncc(Cl)cc4c3)n2c1` [Example 520, 6-(((3-((3-chloroquinolin-6-yl)methyl)imidazo[1,5-a]pyridin-6-yl)amino)methyl)-5,7-dimethylisoquinolin-1-amine], for which the EC50 was greater than 1000 nM.

Consider `Cc1ccnc(Cc2ccc(CNc3cc(NCc4c(C)cc5c(N)nccc5c4C)ncn3)cc2)c1` [Example 364, N^4-((1-amino-5,7-dimethylisoquinolin-6-yl)methyl)-N^6-(4-((4-methylpyridin-2-yl)methyl)benzyl)pyrimidine-4,6-diamine], for which the EC50 is less than 1 nM.

Consider `Cc1cc2c(N)nccc2c(C)c1CNc1ncnc2c1nc(Cc1ccc3ncc(Cl)cc3c1)n2C` [Example 539, 6-(((8-((3-chloroquinolin-6-yl)methyl)-9-methyl-9H-purin-6-yl)amino)methyl)-5,7-dimethylisoquinolin-1-amine], for which the EC50 was in the range of 100 to 1000 nM.

In the case of `Cc1cc2c(N)nccc2c(C)c1CNC(=O)c1cnn(Cc2cn3c(F)c(C4CC4)ccc3n2)c1` [Example 142, N-((1-amino-5,7-dimethylisoquinolin-6-yl)methyl)-1-((6-cyclopropyl-5-fluoroimidazo[1,2-a]pyridin-2-yl)methyl)-1H-pyrazole-4-carboxamide], the EC50 is less than 1 nM.

One may read the EC50 as the concentration at which the effect is half-maximal.
